Test results as given in patent US20250269043A1, “TARGETED BIFUNCTIONAL DEGRADERS” (YALE UNIVERSITY, priority 2019, published 2025).
Values joined by “and” are separate entries in the source; they are usually repeats but may differ in a detail not shown here. Equal values may be shown once.

Experiments:
[1] = Pharmacokinetics of MIF-GN3 in male nude mice; assay type: in vivo; details: one mpk dose
Text: The ability of MIF-GN3 to mediate the depletion of injected human MIF from serum in mice was studied. First, the pharmacokinetics of the bifunctional molecule were investigated.

α-DNP antibody = assay: In vivo depletion of α-DNP antibody from serum in mice (ELISA); details: for serum α-DNP antibody levels compared to PBS: FIG. 94; for α-DNP antibody depleted from serum 24 hours after a single dose: vehicle control 24%
Protocol: FIG. 94 illustrates that serum levels of α-DNP antibody decrease more rapidly following repeated treatment with DNP-GN3. Serum antibody levels were measured using an ELISA assay. Each experimental group contained three mice. Statistical differences in experiments involving in vivo depletion of α-DNP antibody were assessed by repeated measures two-way ANOVA with Tukey's tests for post-hoc comparison of simple effects between each of the treatment groups and PBS.
Single doses of DNP-GN3 were also found to be efficacious at mediating α-DNP antibody depletion, albeit less effectively than daily dosing (FIG. 96). […] Therefore, it was concluded that DNP-GN3 is able to mediate the depletion of a monoclonal antibody from serum, and functions across a wide range of target protein concentrations and dosing regimens.
DNP-GN3 was also found to be efficacious in depleting polyclonal α-DNP antibody from serum collected from mice immunized with DNP-keyhole limpet haemocyanin (KLH) (FIG. 97). […] Thus, the small molecule DNP-GN3 is not restricted in function to only monoclonal mouse antibodies, but is also effective at removing polyclonal α-DNP antibodies from circulation in mice.

HepG2 cells [2] = assay: Subcellular localization and degradation of α-DNP antibody endocytosed with DNP-GN3 (microscopy, western blotting); assay type: cell-based, human
Protocol: In addition, western blotting with an antibody directed to Alexa Fluor 488 was used to determine if endocytosed fluorescently labeled α-DNP antibodies are degraded in vitro. […] Signal arising from Alexa Fluor 488 in cell lysates was associated with only full-length antibody after two hours of incubation. After six hours, a lower molecular weight fluorophore-associated protein fragment between 37 and 50 kDa began to appear. An additional protein fragment with a molecular weight between 25 and 37 kDa was observed after 24 hours. […] Together with the above immunofluorescence studies showing the colocalization of α-DNP antibody-derived fluorescence with lysosomes, these studies support that α-DNP antibody degradation is mediated by lysosomal proteases. Lysosomal degradation is further consistent with a mechanism dependent on ASGPR.

[3] = target: T1, ASGPR on the surface of HepG2 cells and α-DNP antibody (Homo sapiens, UniProt P07306+P07307); assay: DNP-GN3-mediated ternary complex formation: association of fluorescently labeled α-DNP antibody with HepG2 cells in suspension; assay type: cell-based; details: for concentration of DNP-GN3 eliciting half-maximal fluorescence association: FIG. 86A
T1 sequence (P07306 1-291): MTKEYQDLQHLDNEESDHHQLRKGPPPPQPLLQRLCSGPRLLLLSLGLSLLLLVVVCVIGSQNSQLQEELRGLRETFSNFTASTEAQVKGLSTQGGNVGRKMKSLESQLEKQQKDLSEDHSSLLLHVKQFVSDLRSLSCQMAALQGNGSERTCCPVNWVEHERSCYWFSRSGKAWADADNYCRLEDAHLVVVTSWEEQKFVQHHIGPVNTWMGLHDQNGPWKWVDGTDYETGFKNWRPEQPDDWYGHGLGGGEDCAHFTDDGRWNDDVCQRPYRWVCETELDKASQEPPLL
T1 sequence (P07307 1-311): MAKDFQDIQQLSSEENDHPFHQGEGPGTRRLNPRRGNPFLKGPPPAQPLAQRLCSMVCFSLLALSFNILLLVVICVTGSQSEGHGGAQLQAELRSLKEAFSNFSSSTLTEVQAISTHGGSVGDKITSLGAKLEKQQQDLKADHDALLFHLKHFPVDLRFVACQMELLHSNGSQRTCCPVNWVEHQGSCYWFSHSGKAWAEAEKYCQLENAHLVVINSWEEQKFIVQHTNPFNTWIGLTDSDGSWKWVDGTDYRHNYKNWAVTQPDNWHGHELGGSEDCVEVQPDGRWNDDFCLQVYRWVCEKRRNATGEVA
Text: It was investigated whether DNP-GN3 could mediate the formation of a ternary complex between a fluorescently labeled α-DNP antibody and ASGPR on the surface of immortalized human hepatocyte HepG2 cells in suspension. […] The observed bell-shaped response to DNP-GN3 concentration is consistent with the prozone effect commonly observed in systems wherein a ternary complex is formed.

HepG2 cells [4] = assay: DNP-AF3-mediated α-DNP antibody endocytosis by HepG2 cells (flow cytometry); assay type: cell-based, human; details: α-DNP antibody 1 nM
Protocol: The intracellular fluorescence of cells that were incubated at 37° C. with both fluorescently labeled α-DNP antibody and DNP-AF3 for a given amount of time was examined. Cells were then washed, removed from the plate with trypsin, and subjected to flow cytometry.
It was then determined if reagents which inhibit ternary complex formation inhibit endocytosis mediated by DNP-AF3.
Next, whether inhibitors of specific endocytic pathways inhibited α-DNP antibody endocytosis was determined (FIG. 106).

[5] = Tolerability in mice (body weight, serum AST and ALT); assay type: in vivo
Protocol: FIGS. 93A-93C illustrate that DNP-GN3 and DNP-OH3 are not toxic to mice at all tested concentrations. FIG. 93A: mouse body weight following treatment with DNP-GN3 or DNP-OH3. Statistical differences were analyzed by T test. FIG. 93B: levels of aspartate transaminase (AST) in treated mice. Dashed lines represent the normal range. FIG. 93C: levels of alanine transaminase (ALT) in treated mice. Dashed lines represent the normal range.

| Structure (SMILES) | half-life in serum [1] [min] | time of maximum plasma concentration [1] [min] | serum α-DNP antibody levels compared to PBS (α-DNP antibody; 200 μg monoclonal mouse IgG2 α-DNP antibody, daily and twice-daily 1 mpk, 21 days, nude mice) | α-DNP antibody depleted from serum 24 hours after a single dose (α-DNP antibody; 1 mpk, FIG. 96) [%] | α-DNP antibody depleted from serum 24 hours after a single dose (α-DNP antibody; 10 mpk, FIG. 96) [%] | α-DNP antibody depletion after a single dose (α-DNP antibody; 100 mpk, FIG. 96) | degradation of injected anti-DNP IgG antibodies in mouse serum (α-DNP antibody; i.p. injection, FIG. 79A) | serum α-DNP antibody levels compared to PBS (α-DNP antibody; initial antibody dose of 500 μg, daily treatment) | depletion of polyclonal α-DNP antibody from serum compared to PBS (α-DNP antibody; mice immunized with DNP-KLH, daily treatment, each time point, FIG. 97) | colocalization of endocytosed α-DNP antibody with lysosome membrane protein LAMP2 (HepG2 cells [2]; after 12 hours, FIG. 91B) | degradation of endocytosed α-DNP antibody (western blot for Alexa Fluor 488) (HepG2 cells [2]; cell lysates, 2 to 24 hours, FIG. 92A) | concentration of maximal ternary complex formation ([3]; DNP-GN3) | concentration of DNP-GN3 eliciting half-maximal fluorescence association ([3]; higher of the two half-maximal concentrations of the bell-shaped response (prozone effect)) [µM] | concentration of DNP-GN3 eliciting half-maximal fluorescence association ([3]; lower of the two half-maximal concentrations of the bell-shaped response) [µM] | uptake of α-DNP antibody at low target protein concentration (HepG2 cells [4]) | differences in body weight or serum liver enzyme levels between control and treatment groups ([5]; doses up to 100 mpk, FIGS. 93A-93C) | well-tolerated dose ([5]; mice) [mpk] |
| --- | --- | --- | --- | --- | --- | --- | --- | --- | --- | --- | --- | --- | --- | --- | --- | --- | --- |
| CC(=O)N[C@H]1[C@H](OCCOCCOCCNC(=O)CCOCC(COCCC(=O)NCCOCCOCCO[C@@H]2O[C@H](CO)[C@H](O)[C@H](O)[C@H]2NC(C)=O)(COCCC(=O)NCCOCCOCCO[C@@H]2O[C@H](CO)[C@H](O)[C@H](O)[C@H]2NC(C)=O)NC(=O)CNC(=O)CCCOc2ccc3nc(-c4cn(-c5ccc(O)c(F)c5)nn4)ccc3c2)O[C@H](CO)[C@H](O)[C@@H]1O [MIF-GN3] | 25.8 | 15 |  |  |  |  |  |  |  |  |  |  |  |  |  |  |  |
| CC(=O)NC1C(OCCOCCOCCNC(=O)CCOCC(COCCC(=O)NCCOCCOCCOC2OC(CO)C(O)C(O)C2NC(C)=O)(COCCC(=O)NCCOCCOCCOC2OC(CO)C(O)C(O)C2NC(C)=O)NC(=O)CNC(=O)COCCOCCOCCNc2ccc([N+](=O)[O-])cc2[N+](=O)[O-])OC(CO)C(O)C1O (centres unmarked) [DNP-GN3] |  |  | significantly reduced | 52 | 34 | Significant depletion | can induce degradation | significant decrease | significantly more polyclonal α-DNP antibody was removed | strong colocalization | endocytosed α-DNP antibody is degraded in HepG2 cells | 20 nM and 40 nM | 0.12 | 0.0074 | not effective | no significant differences | ≤ 100 |
